ChEMBL document CHEMBL1146788, “Synthesis and biological evaluation of novel beta-carboline derivatives as Tat-TAR interaction inhibitors” (Bioorg Med Chem Lett, 2004)
pEC50: −log10 of the molar value.

How the values were obtained:
MT4 [1] = assay: Concentration required to inhibit the proliferation of uninfected MT-4 cells; type: functional; settings: Homo sapiens
MT4 [2] = assay: Concentration required to protect MT-4 cells against the cytopathogenicity of HIV-1 IIIB; type: functional, cell-based; settings: Homo sapiens

Row | Structure (SMILES) | CC50 (MT4 [1]) [µM] | pEC50 (MT4 [2])
1 | Cc1[nH]c(C(=O)NCCCN)cc2c3ccccc3nc1-2 | > 100 | < 4.00
2 | N=C(N)NCCCNC(=O)c1cc2c3ccccc3nc-2c[nH]1 | > 1000 | ≤ 4.30
3 | Cc1[nH]c(C(=O)NCCCN=C(N)N)cc2c3ccccc3nc1-2 | > 100 | ≤ 4.30
4 | NCCCNC(=O)c1cc2c3ccccc3nc-2c[nH]1 | > 1000 | < 3.00
